In US5780472A, “Piperazine derivatives and methods for the preparation thereof and compositions containing the same” (Samjin Pharmaceuticazl Co., Ltd., priority 1995, dated 1998):
Converted amounts (≈) assume the structure as drawn.

Tests used:
[1] = tested on: 5 kinds of human solid cancer cell lines; test: In vitro antitumor activity against 5 human solid cancer cell lines compared with cisplatin (SRB assay); type: cell-based; settings: in words
Protocol: Antitumor activities of the compounds of present invention were tested. Antitumor activities of compounds of the present invention were tested in vitro against 5 kinds of human tumor cell lines and 2 kinds of leukemia tumor cell lines. The method of in vitro test is as follows.
B. Method of test(SRB Assay Method)
a. Human solid tumor cell lines, […](non-small lung cell), SKMEL-2(melanoma), HCT-15(colon), SKOV-3(ovarian), XF-498(CNS) were cultured at 37° C., in 5% CO2 incubater using the RPMI 1640 media containing 10% FBS, while they were transfer-cultured successively once or twice per week. Cell cultures were dissolved into the solution of 0.25% trypsin and 3 mM CDTA PBS(-) and then cells were separated from media which the cells were sticked on.
b. 5×10^3 -2×10^4 cells were added into each well of 96-well plate and cultured in 5% CO2 incubater, at 37° C., for 24 hours.
c. Each sample drugs was dissolved in a small quantity of DMSO, and diluted to concentrations prescribed in experiment with media, and then the final concentration of DMSO was controlled below 0.5%.
d. A medium of each well cultured for 24 hours as above b., was removed by aspiration. 200 μl of drug samples prepared in c. was added into each well and the wells were cultured for 48 hours. Tz(time zero) plates were collected at the point of time drugs were added.
e. After Tz plates and plates were treated with cell fixing by TCA of SRB assay method, staining of 0.4% SRB solution, washing with 1% acetic acid, OD values were measured at 520 nm, following elution of dye with 10 mM Tris solution.
e. If T≥Tz, cellular response function was calculated with 100×(T-Tz)/(C-Tz), and if T<Tz, with 100×(T-Tz)/Tz.

[2] = tested on: L1210 (mouse leukemia cell); test: In vitro antitumor effects against animal leukemia cells (dye exclusion assay), L1210; type: cell-based; settings: Mus musculus, L1210, 48 h, 50% cell growth inhibition, 37° C., trypan blue, read-out: ED50 (the source's name)
Protocol: L1210(mouse leukemia cell)
(§1) B. Method of Experiment(Dye Exclusion Assay)
(§2) 2) Sample drugs diluted with log dose were added into the cells, and it were cultured at 37° C., for 48 hours, in […] incubater, and then viable cell number was measured, Viable cell number was measured with dye exclusion test using trypan blue.

[3] = tested on: P388 (mouse lymphoid neoplasma cell); test: In vitro antitumor effects against animal leukemia cells (dye exclusion assay), P388; type: cell-based; settings: Mus musculus, P388, 48 h, 50% cell growth inhibition, 37° C., trypan blue, read-out: ED50 (the source's name)
Protocol: P388 (mouse lymphoid neoplasma cell)
as §1, §2

ICR mice = test: Acute toxicity test (LD50), Litchfield-Wilcoxon method; type: in vivo, mouse; set-up: unit not given here; settings: male ICR mice, 14 days
[4] = tested on: L1210 and P388 mouse cancer cells; test: In vitro antitumor activity against L1210 and P388 compared with mitomycin C (dye exclusion assay); type: cell-based; settings: in words
Protocol: as §1
1) L-1210 and P388 cells that were cultured in RPMI 1640 media containing 10% FBS were regulated as the cell concentration of 1×10^6 cells/ml.
as §2
3) The concentration of sample compounds of 50% cell growth inhibition compared with standard group was determined as IC50.

Structure (SMILES) | antitumor activities compared with cisplatin [1] | IC50 [2] | IC50 [3] | LD50 (ICR mice; i.p.) | LD50 (ICR mice; p.o.) | antitumor activities compared with mitomycin C [4]
CCc1cc(NC(=S)N2CCN(c3cc(OC)cc(OC)c3)CC2)c(OC)nc1C [Example 100, 1-[(5-ethyl-2-methoxy-6-methylpyridin-3-yl)aminothiocarbonyl]-4-(3,5-dimethoxyphenyl)piperazine] | superior antitumor activities to those of cisplatin |  |  |  |  | 
COc1nc(C)c(C)cc1NC(=O)N1CCN(c2cccc(C)c2C)CC1 [Example 119, 1-[(5,6-dimethyl-2-methoxypyridin-3-yl)aminocarbonyl]-4-(2,3-xylyl)piperazine] | superior antitumor activities to those of cisplatin | 2.2 µg/mL (≈ 5.97 µM) | 2 µg/mL (≈ 5.43 µM) |  |  | 
COc1nc(C)c(C)cc1NC(=O)N1CCN(c2cccc(Cl)c2)CC1 [Example 109, 1-[(5,6-dimethyl-2-methoxypyridin-3-yl)aminocarbonyl]-4-(3-chlorophenyl)piperazine] | superior antitumor activities to those of cisplatin |  |  | 2,000 | > 2,073 | 
COc1nc(C)c(C)cc1NC(=S)N1CCN(c2cccc(Cl)c2)CC1 [Example 126, 1-[(5,6-dimethyl-2-methoxypyridin-3-yl)aminothiocarbonyl]-4-(3-chlorophenyl) piperazine] | superior antitumor activities to those of cisplatin |  |  |  |  | 
CCc1cc(NC(=O)N2CCN(c3cc(OC)ccc3C)CC2)c(OC)nc1C [Example 48, 1-[(5-ethyl-2-methoxy-6-methylpyridin-3-yl)aminocarbonyl]-4-(5-methoxy-2-methylphenyl)piperazine] | superior antitumor activities to those of cisplatin | 1.9 µg/mL (≈ 4.77 µM) | 1.8 µg/mL (≈ 4.52 µM) |  |  | same or more excellent antitumor activities
COc1nc(C)c(C)cc1NC(=O)N1CCN(c2cc(F)cc(F)c2)CC1 [Example 111, 1-[(5,6-dimethyl-2-methoxypyridin-3-yl)aminocarbonyl]-4-(3,5-difluorophenyl)piperazine] | superior antitumor activities to those of cisplatin |  |  |  |  | 
COc1nc(C)c(C)cc1NC(=O)N1CCN(c2cccc(O)c2)CC1 [Example 113] | superior antitumor activities to those of cisplatin |  |  |  |  | 
CCc1cc(NC(=O)N2CCN(c3cccc(O)c3)CC2)c(OC)nc1C [Example 38, 1-[(5-ethyl-2-methoxy-6-methylpyridin-3-yl)aminocarbonyl]-4-(3-hydroxyphenyl)piperazine] | superior antitumor activities to those of cisplatin | 1.4 µg/mL (≈ 3.78 µM) | 1 µg/mL (≈ 2.7 µM) |  |  | same or more excellent antitumor activities
CCc1cc(NC(=S)N2CCN(c3cccc(Cl)c3)CC2)c(OC)nc1C [Example 98, 1-[(5-ethyl-2-methoxy-6-methylpyridin-3-yl)aminothiocarbonyl]-4-(3-chlorophenyl)piperazine] | superior antitumor activities to those of cisplatin | 2 µg/mL (≈ 4.94 µM) | 2.1 µg/mL (≈ 5.19 µM) | > 1,800 | > 2,000 | 
CCc1cc(NC(=O)N2CCN(c3cc(F)cc(F)c3)CC2)c(OC)nc1C [Example 13, 1-[(5-ethyl-2-methoxy-6-methylpyridine-3-yl)aminocarbonyl]-4-(3,5-difluorophenyl)piperazine] | superior antitumor activities to those of cisplatin | 1.7 µg/mL (≈ 4.35 µM) | 1.6 µg/mL (≈ 4.1 µM) |  |  | same or more excellent antitumor activities
COc1nc(C)c(C)cc1NC(=O)N1CCN(c2cc(C)cc(C)c2)CC1 [Example 120, 1-[(5,6-dimethyl-2-methoxypyridin-3-yl)aminocarbonyl]-4-(3,5-xylyl)piperazine] | superior antitumor activities to those of cisplatin | 0.3 µg/mL (≈ 0.814 µM) | 0.1 µg/mL (≈ 0.271 µM) |  |  | same or more excellent antitumor activities
CCc1cc(NC(=O)N2CCN(c3cccc(C)c3C)CC2)c(OC)nc1C [Example 28, 1-[(5-ethyl-2-methoxy-6-methylpyridin-3-yl)aminocarbonyl]-4-(2,3-dimethylphenyl)piperazine] | superior antitumor activities to those of cisplatin |  |  | > 1,800 | > 2,000 | 
CCc1cc(CNC(=O)N2CCN(c3ccccc3F)CC2)c(OC)nc1C [Example 61] | superior antitumor activities to those of cisplatin |  |  | > 1,687 |  | 
COc1ccccc1N1CCN(C(=S)Nc2cc(C)c(C)nc2OC)CC1 [Example 128] | superior antitumor activities to those of cisplatin | 0.5 µg/mL (≈ 1.29 µM) | 0.2 µg/mL (≈ 0.517 µM) |  |  | same or more excellent antitumor activities
CCc1cc(NC(=O)N2CCN(c3cccc(O)c3C)CC2)c(OC)nc1C [Example 55, 1-[(5-ethyl-2-methoxy-6-methylpyridin-3-yl)aminocarbonyl]-4-(3-hydroxy-2-methylphenyl)piperazine] | superior antitumor activities to those of cisplatin |  |  |  |  | 
C#CCNc1cccnc1N1CCN(C(=O)NCc2cc(CC)c(C)nc2OC)CC1 [Example 144, 1-[(5-ethyl-2-methoxy-6-methylpyridin-3-yl)methylaminocarbonyl]-4-[(3-propargylamino)pyridin-2-yl]piperazine] | superior antitumor activities to those of cisplatin |  |  |  |  | 
CCc1cc(NC(=O)N2CCN(c3cccc(OC(C)=O)c3)CC2)c(OC)nc1C [Example 41, 1-[(5-ethyl-2-methoxy-6-methylpyridin-3-yl)aminocarbonyl]-4-(3-acetoxyphenyl)piperazine] | superior antitumor activities to those of cisplatin | 1.4 µg/mL (≈ 3.39 µM) | 2 µg/mL (≈ 4.85 µM) |  |  | same or more excellent antitumor activities
CCc1cc(NC(=O)N2CCN(c3cccc(Cl)c3)CC2)c(NC)nc1C [Example 91] | superior antitumor activities to those of cisplatin |  |  |  |  | 
COc1ccc(C)c(N2CCN(C(=O)Nc3cc(C)c(C)nc3OC)CC2)c1 [Example 121] | superior antitumor activities to those of cisplatin |  |  |  |  | 
COc1cc(OC)cc(N2CCN(C(=S)Nc3cc(C)c(C)nc3OC)CC2)c1 [Example 129, 1-[(5,6-dimethyl-2-methoxypyridin-3-yl)aminothiocarbonyl]-4-(3,5-dimethoxyphenyl)piperazine] | superior antitumor activities to those of cisplatin |  |  |  |  | 
CCc1cc(NC(=O)N2CCN(c3cc(Cl)ccc3OC)CC2)c(OC)nc1C [Example 49, 1-[(5-ethyl-2-methoxy-6-methylpyridin-3-yl)aminocarbonyl]-4-(5-chloro-2-methioxyphenyl)piperazine] | superior antitumor activities to those of cisplatin | 1.3 µg/mL (≈ 3.1 µM) | 0.6 µg/mL (≈ 1.43 µM) |  |  | same or more excellent antitumor activities
COc1nc(C)c(C)cc1NC(=O)N1CCN(c2cccc(OC(C)=O)c2)CC1 [Example 115, 1-[(5,6-dimethyl-2-methoxypyridin-3-yl)aminocarbonyl]-4-(3-acetoxyphenyl)piperazine] | superior antitumor activities to those of cisplatin |  |  |  |  | 
CCc1cc(NC(=O)N2CCN(c3cc(OC)ccc3Cl)CC2)c(OC)nc1C [Example 50, 1-[(5-ethyl-2-methoxy-6-methylpyridin-3-yl)aminocarbonyl]-4-(2-chloro-5-methoxyphenyl)piperazine] | superior antitumor activities to those of cisplatin | 2 µg/mL (≈ 4.77 µM) | 1.5 µg/mL (≈ 3.58 µM) |  |  | 
CCc1cc(NC(=S)N2CCN(c3ccccc3OC)CC2)c(OC)nc1C [Example 97, 1-[(5-ethyl-2-methoxy-6-methylpyridin-3-yl)aminothiocarbonyl]-4-(2-methoxyphenyl)piperazine] | superior antitumor activities to those of cisplatin | 2 µg/mL (≈ 4.99 µM) | 1.6 µg/mL (≈ 3.99 µM) | 1,100 |  | 
